Measured values published in patent US11149033B2, “Heteroaryl compound, enantiomer, diastereomer or pharmaceutically acceptable salt thereof, and antiviral composition containing same as active ingredient” (priority 2016, dated 2021).
Like-named read-outs stand apart in the source and are kept apart here.

How the values were obtained:
A/Perth/16/2009 (H3N2) = assay: Antiviral activity (drug efficacy evaluation by concentration) against A/Perth/16/2009 (H3N2); type: cell-based, A type influenza virus; conditions: Influenza A virus
B/Florida/04/2006 = assay: Antiviral activity (drug efficacy evaluation by concentration) against B/Florida/04/2006; type: cell-based, B type influenza virus
[1] = system: A/California/07/2009 (H1N1); assay: Antiviral activity (drug efficacy evaluation by concentration) against A/California/07/2009 (H1N1); type: cell-based, A type influenza virus; conditions: Influenza A virus
[2] = H3N2, A/Perth/16/2009 (H3N2), read-out: EC50 A/Perth/16/2009 (H3N2)
[3] = read-out: EC50 B/Florida/04/2006, B/Florida/04/2006
[4] = CC50 B/Florida/04/2006, cytotoxicity in the B/Florida/04/2006 assay
[5] = H1N1, A/California/07/2009 (H1N1), read-out: EC50 A/California/07/2009 (H1N1)
[6] = CC50, third EC50/CC50 column pair (c7), beside the EC50 of c6

| SMILES | EC50 (A/Perth/16/2009 (H3N2); [2]) [µM] | EC50 (B/Florida/04/2006; [3]) [µM] | CC50 (in vitro; [4]) [µM] | EC50 [1, 5] [µM] | EC50 (A/Perth/16/2009 (H3N2); H3N2, read-out: EC50) [µM] | EC50 (B/Florida/04/2006) [µM] | CC50 (in vitro; CC50, beside the EC50 of c2) [µM] | CC50 (in vitro; CC50, beside the EC50 of c4) [µM] | CC50 (in vitro; [6]) [µM] | EC50 ([1]; H1N1, read-out: EC50) [µM] |
| --- | --- | --- | --- | --- | --- | --- | --- | --- | --- | --- |
| Cc1ccccc1CCSc1nnc(Cn2nc(C)c(Br)c2C)o1 [Compound 26, 2-((4-bromo-3,5-dimethyl-1H-pyrazol-1-yl)methyl)-5-((2-methylphenethyl)thio)-1,3,4-oxadiazole] | 29.4 | 36.2 | > 50 | 31.2 |  |  |  |  |  |  |
| c1ccc(-c2ccccc2CSc2nnc(Cc3ccccn3)o2)cc1 [Compound 27, 2-(([1,1′-biphenyl]-2-ylmethyl)thio)-5-(pyridin-2-ylmethyl)-1,3,4-oxadiazole] | 6.8 | 13.4 | > 50 | 8.7 |  |  |  |  |  |  |
| c1ccc(-c2cnn(Cc3nnc(SCc4ccccc4-c4ccccc4)o3)c2)cc1 [Compound 30, 2-(([1,1′-biphenyl]-2-ylmethyl)thio)-5-((4-phenyl-1H-pyrazol-1-yl)methyl)-1,3,4-oxadiazole] | 13 | > 50 | > 50 | > 50 |  |  |  |  |  |  |
| Cc1nn(Cc2nnc(SCc3ccccc3-n3cccc3)o2)c(C)c1Br [Compound 31, 2-((2-(1H-pyrrol-1-yl)benzyl)thio)-5-((4-bromo-3,5-dimethyl-1H-pyrazol-1-yl)methyl)-1,3,4-oxadiazole] | 2.3 | 3.57 | 11.8 | 1.8 |  |  |  |  |  |  |
| Cc1nn(Cc2nnc(SCc3ccccc3-c3ccoc3)o2)c(C)c1Br [Compound 34, 2-((4-bromo-3,5-dimethyl-1H-pyrazol-1-yl)methyl)-5-((2-(furan-3-yl)benzyl)thio)-1,3,4-oxadiazole] | 1.8 | 4.48 | 22.8 | 1.4 |  |  |  |  |  |  |
| Cc1nn(Cc2nnc(SCc3ccccc3Cc3ccccc3)o2)c(C)c1Br [Compound 38, 2-((2-benzylbenzyl)thio)-5-((4-bromo-3,5-dimethyl-1H-pyrazol-1-yl)methyl)-1,3,4-oxadiazole] | 1.04 | 1.18 | > 50 | 1.03 |  |  |  |  |  |  |
| Cc1nc2ccccc2n1Cc1nnc(SCc2ccccc2-c2ccccc2)o1 [Compound 41, 2-(([1,1′-biphenyl]-2-ylmethyl)thio)-5-((2-methyl-1H-benzo[d]imidazol-1-yl)methyl)-1,3,4-oxadiazole] | 0.91 | 1.21 | 19.7 | 0.69 |  |  |  |  |  |  |
| Cc1nn(Cc2nnc(N(C)Cc3ccccc3-c3ccccc3)o2)c(C)c1Br [Compound 44, N-([1,1′-biphenyl]-2-ylmethyl)-5-((4-bromo-3,5-dimethyl-1H-pyrazol-1-yl)methyl)-N-methyl-1,3,4-oxadiazol-2-amine] | 29.4 | > 50 | > 50 | > 50 |  |  |  |  |  |  |
| CC(=O)N(Cc1ccccc1-c1ccccc1)c1nnc(Cn2nc(C)c(Br)c2C)o1 [Compound 45, N-([1,1′-biphenyl]-2-ylmethyl)-N-(5-((4-bromo-3,5-dimethyl-1H-pyrazol-1-yl)methyl)-1,3,4-oxadiazol-2-yl)acetamide] | 25.8 | 23.8 | 33.5 | 26.2 |  |  |  |  |  |  |
| Cc1nn(Cc2nnc(Cc3cccc(Cl)c3)o2)c(C)c1Br [Compound 46, 2-((4-bromo-3,5-dimethyl-1H-pyrazol-1-yl)methyl)-5-(3-chlorobenzyl)-1,3,4-oxadiazole] | 21.8 | 27.5 | > 50 | 24.3 |  |  |  |  |  |  |
| Cc1nn(CCc2nnc(SCc3ccccc3-c3ccccc3)o2)c(C)c1Br [Compound 49, 2-(([1,1′-biphenyl]-2-ylmethyl)thio)-5-(2-(4-bromo-3,5-dimethyl-1H-pyrazol-1-yl)ethyl)-1,3,4-oxadiazole] | > 50 | > 50 | > 50 | > 50 |  |  |  |  |  |  |
| Cc1nn(Cc2nnc(/C=C/c3ccccc3C(C)C)o2)c(C)c1Br [Compound 50, (E)-2-((4-bromo-3,5-dimethyl-1H-pyrazol-1-yl)methyl)-5-(2-isopropylstyryl)-1,3,4-oxadiazole] | 11.4 | 24.5 | > 50 | 18.7 |  |  |  |  |  |  |
| Brc1ccc(OCc2nnc(SCc3ccccc3-c3ccccc3)o2)cc1 [Compound 58, 2-(([1,1′-biphenyl]-2-ylmethyl)thio)-5-((4-bromophenoxy)methyl)-1,3,4-oxadiazole] | 44.3 | > 50 | > 50 | > 50 |  |  |  |  |  |  |
| CC(c1ccccc1)c1nnc(SCc2ccccc2-c2ccccc2)o1 (stereo not drawn) [Compound 73, 2-(([1,1′-biphenyl]-2-ylmethyl)thio)-5-(1-phenylethyl)-1,3,4-oxadiazole] | 41.7 | > 50 | > 50 | 17.2 |  |  |  |  |  |  |
| FC(F)(c1ccc(Br)cc1)c1nnc(SCc2ccccc2-c2ccccc2)o1 [Compound 74, 2-(([1,1′-biphenyl]-2-ylmethyl)thio)-5-((4-bromophenyl)difluoromethyl)-1,3,4-oxadiazole] | 11 | > 50 | > 50 | 21.2 |  |  |  |  |  |  |
| Brc1ccc(Nc2nnc(/C=C/c3ccccc3Br)o2)cc1 [Compound 83, (E)-N-(4-bromophenyl)-5-(2-bromostyryl)-1,3,4-oxadiazol-2-amine] |  |  |  |  | 4.75 | 4.63 | > 50 | > 50 | > 50 | 4.25 |
| CC(C)c1ccccc1CCc1nnc(Cc2ccc(Br)cc2)o1 [Compound 92, 2-(4-bromobenzyl)-5-(2-isopropylphenethyl)-1,3,4-oxadiazole] |  |  |  |  | 6.42 | 6.59 | > 50 | > 50 | > 50 | 7.17 |
| CC(C)c1ccccc1CCc1nnc(Cc2ccc(OC(F)(F)F)cc2)o1 [Compound 93, 2-(2-isopropylphenethyl)-5-(4-(trifluoromethoxy)benzyl)-1,3,4-oxadiazole] |  |  |  |  | 31.5 | 45.1 | > 50 | > 50 | > 50 | 22.1 |
| Cc1cc(C)cc(Cc2nnc(CCc3ccccc3C(C)C)o2)c1 [Compound 94, 2-(3,5-dimethylbenzyl)-5-(2-isopropylphenethyl)-1,3,4-oxadiazole] |  |  |  |  | 43.4 | > 50 | > 50 | > 50 | > 50 | 37.8 |
| Clc1cccc(Cc2nnc(SCc3ccccc3-c3ccccc3)o2)c1 [Compound 95, 2-(([1,1′-biphenyl]-2-ylmethyl)thio)-5-(3-chlorobenzyl)-1,3,4-oxadiazole] |  |  |  |  | 41.4 | 37.6 | > 50 | > 50 | > 50 | 12.5 |
| Cc1nn(Cc2nnc(S(=O)(=O)Cc3ccccc3-c3ccccc3)o2)c(C)c1Br [Compound 96, 2-(([1,1′-biphenyl]-2-ylmethyl)sulfonyl)-5-((4-bromo-3,5-dimethyl-1H-pyrazol-1-yl)methyl)-1,3,4-oxadiazole] |  |  |  |  | 1.3 | 1.03 | > 50 | > 50 | > 50 | 1.3 |
| COC(c1ccccc1)c1nnc(SCc2ccccc2-c2ccccc2)o1 (stereo not drawn) [Compound 97, 2-(([1,1′-biphenyl]-2-ylmethyl)thio)-5-(methoxy(phenyl)methyl)-1,3,4-oxadiazole] |  |  |  |  | 5.9 | 2.53 | 6.08 | 6.2 | 6 | 4.4 |
| Brc1ccc(Cc2nnc(Cc3cccc4ccccc34)o2)cc1 [Compound 100, 2-(4-bromobenzyl)-5-(naphthalen-1-ylmethyl)-1,3,4-oxadiazole] |  |  |  |  | 49 | > 50 | > 50 | > 50 | > 50 | > 50 |
| CC(C)c1ccccc1CCc1nnc(Cc2cccc(Br)c2)o1 [Compound 101, 2-(3-bromobenzyl)-5-(2-isopropylphenethyl)-1,3,4-oxadiazole] |  |  |  |  | 45.5 | 36.5 | > 50 | > 50 | > 50 | 45.3 |
